Several values for one entry are separate records, joined by “and”; a condition that tells them apart may be missing. Identical values can stand only once. Like-named read-outs stand apart in the source and are kept apart here. Numbered stars: 1 amine (or outer) side, 2 acyl side, 3 side chain; on linkers, the order of the positions; unused ones are H or OH. Bridge positions count the residues as written; N and C are the ends. Square brackets hold non-standard residues; d marks the D form. Peptide text beside a SMILES is read from it. AMPB(E) = O=C(c1ccc(/N=N/c2ccc(CN[*:1])cc2)cc1)[*:2]; X2 = O=C(c1ccc(/N=N\c2ccc(CN[*:1])cc2)cc1)[*:2]
Legend:
hV1bR = biological target: T1, hV1bR (Homo sapiens, UniProt P47901); test: IP-One accumulation assay, agonist function, HEK293 cells expressing hV1bR; format: cell-based; settings: for reduced potency at V1bR compared to VP: EC50 vs VP; for Emax: HEK293, relative to the effect of VP, read-out: V1bR Emax ± SEM; for V1bR E/Z ratio EC50: ratio of EC50 of E- and Z-isomer
T1 construct: expressed in transfected cells
T1 sequence (P47901 1-424): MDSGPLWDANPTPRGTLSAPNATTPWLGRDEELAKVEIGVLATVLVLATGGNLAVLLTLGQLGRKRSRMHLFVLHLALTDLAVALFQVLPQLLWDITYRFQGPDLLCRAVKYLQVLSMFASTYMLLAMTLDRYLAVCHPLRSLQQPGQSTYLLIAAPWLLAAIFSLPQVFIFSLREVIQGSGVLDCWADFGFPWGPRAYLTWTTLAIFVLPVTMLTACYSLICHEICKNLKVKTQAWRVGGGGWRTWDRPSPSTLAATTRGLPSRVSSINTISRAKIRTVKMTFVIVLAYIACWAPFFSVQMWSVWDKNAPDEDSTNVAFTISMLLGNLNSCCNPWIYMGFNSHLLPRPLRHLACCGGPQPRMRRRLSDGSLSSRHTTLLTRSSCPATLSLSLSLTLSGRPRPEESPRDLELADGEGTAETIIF

[1] = Photostationary state by analytical C18-RP-HPLC; format: physicochemical; settings: for PSS (E → Z): irradiation with 340 nm, HEPES buffer; for PSS (Z → E): irradiation with 420 nm (8–17) or 528 nm (18, 19)
Experimental: All photoprobes were investigated regarding their photophysical properties in aqueous buffer (pH 7.5), mimicking the conditions of the biological functional assays.
1.3.2. Photostationary States
Photostationary states (PSS) were measured on analytical C18-RP-HPLC (flow: 0.3 mL/min, solvent A: H2O (0.05% TFA), solvent B: MeCN). To determine the PSS of the photoswitches, the samples (in 0.1 mM in HEPES buffer + 1% DMSO, pH 7.5) were irradiated first with 340 nm to get the Z-isomer. Afterwards, the sample was irradiated with 420 nm (8-17) or 528 nm (18 and 19), respectively, to get back to the E-isomer. The samples were measured at the isosbestic points.

hV1aR [2] = biological target: T2, hV1aR (Homo sapiens, UniProt P37288); test: IP-One accumulation assay, antagonist function (VP displacement) at hV1aR; format: cell-based; settings: coaddition of VP 1 nM; for antagonistic activity at V1aR: 10 and 100 μM; for VP displacement: at 10 μM
T2 construct: expressed in transfected cells
T2 sequence (P37288 whole entry): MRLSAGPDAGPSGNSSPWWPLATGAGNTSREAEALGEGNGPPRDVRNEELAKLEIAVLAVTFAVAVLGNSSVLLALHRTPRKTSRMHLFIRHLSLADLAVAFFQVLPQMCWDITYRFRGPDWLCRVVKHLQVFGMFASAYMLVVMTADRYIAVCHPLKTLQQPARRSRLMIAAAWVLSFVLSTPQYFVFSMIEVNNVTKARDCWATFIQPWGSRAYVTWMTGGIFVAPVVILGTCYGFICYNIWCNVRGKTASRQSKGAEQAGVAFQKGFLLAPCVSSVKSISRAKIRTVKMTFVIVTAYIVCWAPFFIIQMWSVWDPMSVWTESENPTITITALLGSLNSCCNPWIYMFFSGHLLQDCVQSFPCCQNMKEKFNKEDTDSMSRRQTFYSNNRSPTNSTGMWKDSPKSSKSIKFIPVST
Experimental: This was done via coaddition and prior mixing of VP (EC60 of 1 nM) and the potential antagonists 13–19. […] IP1 accumulation was measured at concentrations of 10 and 100 μM for peptides 13–19.
Figure 5 Functional screen for antagonistic activities at V1aR. […] Data represent mean ± SEM from at least three independent experiments, each performed in triplicate.
To assess the antagonistic properties of compounds 13–19, a 4-fold concentrated dilution series in stimulation buffer was prepared for each isomer. Separately, a 4-fold concentrated VP solution was prepared (4 nM, final concentration 1 nM). A 1:1 mixture of VP solution and the diluted ligand was made to end up with a 2-fold concentration of both compounds. The following steps were conducted as described above for the agonist mode. The FRET ratios (665/615 nm) were calculated and obtained values were normalized to the basal activity value (0%) and maximal effect of VP (100%). Atosiban was used as a positive control.

[3] = Thermal half-life of the Z-isomer (UV/vis, 96-well plate); format: physicochemical; settings: for t1/2 (thermal half-life, Figure S50): 50 µM in HEPES buffer + 0.25% DMSO, pre-irradiated with 340 nm; for t1/2 (thermal half-life Z to E): preirradiation with 340 nm
Text: All photoprobes were investigated regarding their photophysical properties in aqueous buffer (pH 7.5), mimicking the conditions of the biological functional assays. […] Upon irradiation with 340 nm light for 10 s and monitoring via UV/vis spectroscopy, all compounds could be switched to the Z-isomer, reaching the photostationary state (PSS). Compounds 8–17 containing azobenzene could be switched back to the E-isomer by irradiation at 420 nm for 60 s. Compounds 18 and 19 containing arylazopyrazole could be reverted to the E isomer by using 528 nm light. […] The PSS, when switched to the Z-isomer, was consistently good, with a PSS of 81–95%. […] The thermal half-lives of 10 and 12 were also measured at 37 °C, representing the temperature during the biological assays. As expected, the thermal half-lives decreased, however, the ratio of E and Z isomers remained stable during the incubation period of the biological assays (1 h).
Starting materials and commercial reagents were purchased from Acros, Alfa Aesar, Fisher, Fluka, Fluorochem, Merck (Sigma-Aldrich), TCI and VWR and were used without further purification. Solvents were used in p.a. quality or dried according to common procedures if necessary. All reactions with oxygen- or moisture-sensitive reagents were carried out in glassware that was dried before use by heating under vacuum. Dry nitrogen or argon was used for an inert gas atmosphere. All NMR spectra were measured at room temperature (20 °C) using a Bruker Avance 400 (400 MHz for ^1H and 101 MHz for ^13C) or a Bruker Avance 600 (600 MHz for ^1H and 151 MHz for ^13C) NMR spectrometer. All chemical shifts are reported in δ-scale as parts per million [ppm] (multiplicity, coupling constant J, number of protons) relative to the solvent residual peaks. Coupling constants J are given in hertz [Hz]. Abbreviations used for signal multiplicity: ^1H NMR: s = singlet, d = doublet, dd = doublet of doublets, ddd = doublet of doublets of doublets, dt = doublet of triplets, t = triplet, td = triplet of doublets, q = quartet, and m = multiplet. All mass spectra were recorded on an Agilent Q-TOF 6540 UHD, Finnigan MAT SSQ 710 A, Jeol AccuTOF GCX or ThermoQuest Finnigan TSQ 7000 spectrometer. Absorption spectra were recorded on an UV/vis Agilent Cary 50 spectrometer. Thermal half-lives were measured on a 96-well plate in a Thermo Scientific Multiskan Spectrum. Analytical TLC was performed on silica gel-coated alumina plates (MN precoated TLC-sheets ALUGRAM Xtra SIL G/UV254). Visualization was done using UV light (254 or 366 nm) or staining with ninhydrin solution. Column chromatography was performed on a Biotage Isolera One automated flash purification system with a UV/vis detector. Analytical RP-HPLC was carried out on an Agilent 1220 Infinity LC System (column: P/No 00F-4251-B0, Phenomenex Luna 3 μm C18(2) 100 Å, LC column 150 mm × 2.0 mm). Purification by preparative HPLC was conducted on a preparative HPLC Agilent 1260 Infinity LC System [column: P/No 00G-4253-P0-AX, Phenomenex Luna 10 μm C18(2) 100 Å, LC column 250 mm × 21.2 mm]. The eluent systems were used as specified. After the purification process, solvents were removed by lyophilization. Switching experiments were done with a 340 nm LED (SSC VIOSYS CUD4AF1B, 500 mA, 55 mW), 420 nm LED (ILH-XC01-S410-SC211-WIR200, 800 mA, 440 mW), and 528 nm LED (OSRAM Oslon SSL 80 green, 500 mA, 34 mW). Purity of all photoprobes was >95% as determined by analytical RP-HPLC at 220 nm in DMSO.
1.3.4. Thermal Half-lives
Thermal half-lives were measured in a 96-well plate in a Thermo Scientific Multiskan® Spectrum at 25 °C (and at 37 °C for compounds 10 and 12). The solutions (50 µM in HEPES buffer + 0.25% DMSO) were pre-irradiated with 340 nm. The absorption at 335 nm was measured every 3 h. The data was analyzed using Origin 2021.
0,7 1/2 ExpDec1 Fit of Sheet1 B
Modell ExpDec1 0,35 Modell ExpDec1
0,6 Gleichung y = A 1 *e xp (-x/t1 ) + y0 Gleichung y = A 1 *e xp (-x/t1 ) + y0 […]

hV1aR [4] = biological target: T2, hV1aR; test: IP-One accumulation assay, agonist function, HEK293 cells expressing hV1aR; format: cell-based; settings: for agonist activity at V1aR: concentrations up to 10 μM
[5] = supplementary CSV, read-out: activity E-isomer V1bR
[6] = supplementary CSV, µM, read-out: activity E-isomer V1aR
[7] = supplementary CSV, µM, read-out: activity Z-isomer V1aR
[8] = IP-One, stable HEK293 hV1bR, read-out: V1bR EC50 ± SEM
[9] = IP-One, stable HEK293 hV1aR, μM, read-out: V1aR EC50

Molecule | PSS (E → Z) [1] [%] | PSS (Z → E) [1] [%] | antagonistic activity at V1aR (hV1aR [2]) | t1/2 (thermal half-life, Figure S50) ([3]; 25 °C) [days] | t1/2 (thermal half-life Z to E) ([3]; 25 °C, HEPES buffer pH 7.4) [days] | Emax (hV1bR) [%] | EC50 (hV1bR; [8]) [µM] | V1bR E/Z ratio EC50 (hV1bR) | EC50 (hV1aR [4]; [9]) [µM] | also measured
NC(=O)CC[C@@H]1NC(=O)[C@H](Cc2ccccc2)NC(=O)[C@H](Cc2ccc(O)cc2)NC(=O)[C@@H](N)CSSC[C@@H](C(=O)NCc2ccc(/N=N/c3ccc(C(=O)NCC(N)=O)cc3)cc2)NC(=O)[C@H](CC(N)=O)NC1=O [compound 13, [AzbL^7/8]-VP] (H-CYFQNC[AMPB(E)]G-NH2; disulfide 1-6) | 85 | 79 | some level of antagonistic activity | 0.517 | 0.5 | – | – | – | – | reduced potency at V1bR compared to VP (hV1bR): 700–2000 fold; EC50 (hV1bR; [5]): 11.3 ± 1.83 µM; EC50 (hV1bR; supplementary CSV, read-out: activity Z-isomer V1bR): 7.23 ± 1.58 µM; VP displacement (hV1aR [2]): 76%; agonist activity at V1aR (hV1aR [4]): complete loss of potency; EC50 (hV1aR [4]; [6]): > 10 µM; EC50 (hV1aR [4]; [7]): > 10 µM
N=C(N)NCCC[C@H](NC(=O)[C@@H]1CCCN1C(=O)[C@@H]1CSSC[C@H](N)C(=O)N[C@@H](Cc2ccc(O)cc2)C(=O)N[C@@H](Cc2ccc(/N=N/c3ccccc3)cc2)C(=O)N[C@@H](CCC(N)=O)C(=O)N[C@@H](CC(N)=O)C(=O)N1)C(=O)NCC(N)=O [compound 12, [AzbS^3]-VP] | – | – | – | 3.0 | 3.0 | – | – | – | – | potency difference between the E and Z isomers at V1bR (photoswitch window) (hV1bR; EC50 E vs Z): 5.3 fold and 5 fold; t1/2 (thermal half-life, Figure S50) ([3]; 37 °C): 1.4 days; t1/2 (thermal half-life Z to E) ([3]; 37 °C): 1.4 days; reduced potency at V1aR compared to VP (hV1aR [4]; EC50 vs VP): > 1000 fold
N=C(N)NCCC[C@H](NC(=O)c1ccc(/N=N/c2ccc(CNC(=O)[C@@H]3CSSC[C@H](N)C(=O)N[C@@H](Cc4ccc(O)cc4)C(=O)N[C@@H](Cc4ccccc4)C(=O)N[C@@H](CCC(N)=O)C(=O)N[C@@H](CC(N)=O)C(=O)N3)cc2)cc1)C(=O)NCC(N)=O [E-14] (H-CYFQNC[AMPB(E)]RG-NH2; disulfide 1-6) | – | – | – | – | – | 48 ± 2 | 4.97 ± 0.754 | 2.1 | > 10 | –
NC(=O)CC[C@@H]1NC(=O)[C@H](Cc2ccccc2)NC(=O)[C@H](Cc2ccc(O)cc2)NC(=O)[C@@H](N)CSSC[C@@H](C(=O)NCc2ccc(/N=N/c3ccc(C(=O)NCC(N)=O)cc3)cc2)NC(=O)[C@H](CC(N)=O)NC1=O [E-13] (H-CYFQNC[AMPB(E)]G-NH2; disulfide 1-6) | – | – | – | – | – | 45 ± 3 | 11.3 | 1.6 | > 10 | –
[AzbC(o,o)^1,Dap^6]-VP [compound 15] | 88 | 69 | some antagonistic properties | 2.7 | 2.7 | – | – | – | – | –
N=C(N)NCCC[C@H](NC(=O)c1ccc(/N=N/c2ccc(CNC(=O)[C@@H]3CSSC[C@H](N)C(=O)N[C@@H](Cc4ccc(O)cc4)C(=O)N[C@@H](Cc4ccccc4)C(=O)N[C@@H](CCC(N)=O)C(=O)N[C@@H](CC(N)=O)C(=O)N3)cc2)cc1)C(=O)NCC(N)=O [compound 14, [AzbL^7]-VP] (H-CYFQNC[AMPB(E)]RG-NH2; disulfide 1-6) | 81 | 86 | some level of antagonistic activity | 1.4 | 1.4 | – | – | – | – | reduced potency at V1bR compared to VP (hV1bR): 700–2000 fold; EC50 (hV1bR; [5]): 4.97 ± 0.754 µM; VP displacement (hV1aR [2]): 85%; agonist activity at V1aR (hV1aR [4]): complete loss of potency; EC50 (hV1aR [4]; [6]): > 10 µM; EC50 (hV1aR [4]; [7]): > 10 µM
NC(=O)CC[C@@H]1NC(=O)[C@H](Cc2ccccc2)NC(=O)[C@H](Cc2ccc(O)cc2)NC(=O)[C@@H](N)CSSC[C@@H](C(=O)NCc2ccc(/N=N\c3ccc(C(=O)NCC(N)=O)cc3)cc2)NC(=O)[C@H](CC(N)=O)NC1=O [Z-13] (H-CYFQNC[X2]G-NH2; disulfide 1-6) | – | – | – | – | – | 52 ± 5 | 7.23 ± 1.57 | 1.6 | > 10 | –

From PMC10641831 (Journal of Medicinal Chemistry, 2023)
